According to article PMC12531613, “Synthesis and Biological Evaluation of Novel 2‐(Piperidin‐4‐yl)‐1,2,3,4‐tetrahydroisoquinoline and 2‐(Piperidin‐4‐yl)decahydroisoquinoline Antimycotics” (Archiv Der Pharmazie, 2025):
In brackets after ≈: the same amount, converted by molar mass. Read-outs that look alike come from different tables or passages of the source.

How the values were obtained:
[1] = tested on: C. glabrata; assay: MIC90 microdilution (EUCAST), C. glabrata; format: cell-based; settings: Nakaseomyces glabratus, 24 h
Procedure: (§1) Determination of MICs (minimal inhibitory concentration) against Candida species was carried out according to the European Committee of Antifungal Susceptibility Testing. Concentration of yeast cells was determined by photometer and adjusted to a turbidity of 0.5 according to McFarland standard. MIC90 was determined by microdilution plate reader (Sunrise Tecan) at 450 nm, after 24 h incubation at 37°C. MIC90 was defined as the minimal concentration of chemical causing 90% growth inhibition, respectively. Growth inhibition of molds was determined by eye and microscopically, following EUCAST guidelines. All substances were dissolved in DMSO and diluted in RPMI 1640 medium, containing 2% glucose. All assays were carried out twice.

[2] = tested on: R. arrhizus (oryzae); assay: MIC90 growth inhibition of molds (EUCAST), R. arrhizus (oryzae); format: cell-based; settings: Rhizopus arrhizus
Procedure: as §1

[3] = tested on: Yarrowia lipolytica; assay: MIC100 microdilution assay against Yarrowia lipolytica; format: cell-based
Procedure: In previous research we found a good correlation between MIC values against Yarrowia lipolytica and pathogenic Candida species.
Determination of MICs against Yarrowia lipolytica (DSMZ, Braunschweig, Germany) was carried out according to lit. Yarrowia lipolytica was cultivated in AC‐agar (Sigma Aldrich). Concentration of yeast cells was determined by photometer and adjusted to a turbidity of 0.5 according to McFarland standard at 600 nm. All substances were dissolved in DMSO or methanol.
Determination of MICs (minimal inhibitory concentration) against Yarrowia lipolytica was carried out according to Lit.^[13] Concentration of yeast cells was determined by photometer and adjusted to a turbitity of 0.5 according to McFarland Standard.

[4] = tested on: C. albicans; assay: MIC90 microdilution (EUCAST), C. albicans; format: cell-based; settings: Candida albicans, 24 h
Procedure: as §1

[5] = tested on: molds; assay: Growth inhibition of molds; format: cell-based; settings: against the molds
Procedure: as §1

[6] = tested on: C. krusei; assay: MIC90 microdilution (EUCAST), C. krusei; format: cell-based; settings: Pichia kudriavzevii, 24 h
Procedure: as §1

[7] = tested on: A. fumigatus (R7); assay: MIC90 growth inhibition of molds (EUCAST), A. fumigatus (R7); format: cell-based; settings: Aspergillus fumigatus
Procedure: as §1

[8] = tested on: A. fumigatus (R16); assay: MIC90 growth inhibition of molds (EUCAST), A. fumigatus (R16); format: cell-based; settings: Aspergillus fumigatus
Procedure: as §1

[9] = MTT cytotoxicity assay against HL 60 cells; format: cell-based; settings: human
Procedure: The cytotoxicity of the active compounds was checked in an MTT assay against human HL 60 cells. […] Although, this corresponds to the MIC range that would be needed in treatment, the values are within the range observed for commonly used antimycotics such as amorolfine and posaconazole. All active compounds were evaluated for their biopharmaceutical behavior and drug‐likeness using the online program SwissADME [26] and should show oral bioavailability according to the Lipinski rules of five.
HL‐60 cells (human leukemia cells, DSM No. ACC3) were obtained from DSMZ (German Collection of Microorganisms and Cell Cultures, Braunschweig, Germany) and cultivated in RPMI 1640 medium with 10% fetal bovine serum (FBS), both from PAA Laboratories, Cölbe, Germany) without the addition of antibiotics at 37°C in a humidified atmosphere containing 5% CO2. The assay was performed according to lit.

[10] = tested on: R. microsporus; assay: MIC90 growth inhibition of molds (EUCAST), R. microsporus; format: cell-based; settings: Rhizopus microsporus
Procedure: as §1

[11] = tested on: A. fumigatus (A65); assay: MIC90 growth inhibition of molds (EUCAST), A. fumigatus (A65); format: cell-based; settings: Aspergillus fumigatus, RPMI 1640, 2% glucose, read by eye and microscopically
Procedure: Determination of MICs (minimal inhibitory concentration) against Candida species was carried out according to the European Committee of Antifungal Susceptibility Testing. Concentration of yeast cells was determined by photometer and adjusted to a turbidity of 0.5 according to McFarland standard. […] Growth inhibition of molds was determined by eye and microscopically, following EUCAST guidelines. […] All assays were carried out twice.

[12] = tested on: Candida isolates; assay: MIC90 against Candida isolates; format: cell-based; settings: span over the Candida isolates tested
Procedure: as §1

[13] = tested on: Candida species; settings: reported values; cited from earlier work
[14] = 48 h, read-out: Biological Activity MIC Yarrowia lipolytica
[15] = read-out: MIC100 (molar value in brackets)
[16] = HL-60 cells (human leukemia cells), HL 60 cell line, MTT assay, read-out: IC50 cytotoxicity

Structure (SMILES)	MIC90 [1]	MIC90 [2]	MIC [3, 14]	MIC ([3]; 48 h, read-out: MIC100)	MIC [3, 15]	MIC90 [4]	growth inhibition at concentrations (molds) [5]	MIC90 [6]	MIC90 [7]	MIC90 [8]	IC50 [9, 16]	MIC90 [10]	MIC90 [11]	other results
CC(C)=CCC/C(C)=C/CN1CCC(N2CCC3CCCCC3C2)CC1 (stereo not drawn) [6l, 2‐{1‐[(2E)‐3,7‐Dimethylocta‐2,6‐dien‐1‐yl]piperidin‐4‐yl}‐decahydroisoquinoline]	> 32 µg/mL	16 µg/mL (≈ 44.6 µM)	12.5 µg/mL	12.5 µg/mL	34.9 µM	32 µg/mL (≈ 89.2 µM)	16 to 32 µg/mL	4 µg/mL (≈ 11.2 µM)	> 32 µg/mL	> 32 µg/mL	26 µg/mL (≈ 72.5 µM)	> 32 µg/mL	> 32 µg/mL	–
CCCCCCCCCCCCN1CCC(N2CCC3CCCCC3C2)CC1 (racemic) [6i, (±)‐2‐(1‐Dodecylpiperidin‐4‐yl)‐decahydroisoquinoline]	16 µg/mL (≈ 41 µM)	> 32 µg/mL	1.6 µg/mL	1.6 µg/mL	4.1 µM	–	16 to 32 µg/mL	–	32 µg/mL (≈ 81.9 µM)	32 µg/mL (≈ 81.9 µM)	23 µg/mL (≈ 58.9 µM)	> 32 µg/mL	32 µg/mL (≈ 81.9 µM)	MIC90 [12]: 2 to 16 µg/mL (≈ 5.12 to 41 µM)
CC(Cc1ccc(C(C)(C)C)cc1)CN1CCCCC1 (stereo not drawn) [fenpropidin]	–	–	–	–	–	–	–	–	–	–	–	–	–	MIC values against Candida species [13]: 0.25 to 1 µg/mL
CC(Cc1ccc(C(C)(C)C)cc1)CN1C[C@@H](C)O[C@@H](C)C1 (stereo partly drawn) [fenpropimorph]	–	–	–	–	–	–	–	–	–	–	–	–	–	MIC values against Candida species [13]: 0.5 to 2 µg/mL
CCCCCCCCCCCCN1CCC(N2CCc3cc(OC)c(OC)cc3C2)CC1 [6f, 2‐(1‐Dodecylpiperidin‐4‐yl)‐6,7‐dimethoxy‐1,2,3,4‐tetrahydroisoquinoline]	–	> 32 µg/mL	3.1 µg/mL	3.1 µg/mL	7 µM	4 µg/mL (≈ 8.99 µM)	–	2 µg/mL (≈ 4.5 µM)	> 32 µg/mL	> 32 µg/mL	6 µg/mL (≈ 13.5 µM)	> 32 µg/mL	> 32 µg/mL	MIC90 [12]: 2 to 16 µg/mL (≈ 4.5 to 36 µM)
CCCCN1CCC(N2CCC3CCCCC3C2)CC1 (racemic) [6g, (±)‐2‐(1‐Butylpiperidin‐4‐yl)‐decahydroisoquinoline]	–	–	–	–	–	–	–	–	–	–	–	–	> 32 µg/mL	MIC90 ([1]; C. glabrata, RPMI 1640, 2% glucose, 37°C, duplicate, read-out: MIC90): > 32 µg/mL; MIC90 ([2]; R. arrhizus (oryzae), RPMI 1640, 2% glucose, read by eye and microscopically, read-out: MIC90): > 32 µg/mL; MIC ([3]; microdilution, 48 h, 25°C, 600 nm, read-out: MIC100): > 100 µg/mL; MIC ([3]; supplement table, MIC100, 48 h, 25°C, 600 nm, read-out: Biological Activity MIC Yarrowia lipolytica): > 100 µg/mL; MIC90 ([4]; C. albicans, RPMI 1640, 2% glucose, 37°C, duplicate, read-out: MIC90): > 32 µg/mL; MIC90 ([6]; C. krusei, RPMI 1640, 2% glucose, 37°C, duplicate, read-out: MIC90): > 32 µg/mL; MIC90 ([7]; A. fumigatus (R7), RPMI 1640, 2% glucose, read by eye and microscopically, read-out: MIC90): > 32 µg/mL; MIC90 ([8]; A. fumigatus (R16), RPMI 1640, 2% glucose, read by eye and microscopically, read-out: MIC90): > 32 µg/mL; IC50 [9]: > 100 µg/mL; MIC90 ([10]; R. microsporus, RPMI 1640, 2% glucose, read by eye and microscopically, read-out: MIC90): > 32 µg/mL
CC(C)=CCCC(C)CCN1CCC(N2CCC3CCCCC3C2)CC1 (racemic) [6k, (±)‐2‐[1‐(3,7‐Dimethyloct‐6‐en‐1‐yl)‐piperidin‐4‐yl]‐decahydroisoquinoline]	> 32 µg/mL	16 µg/mL (≈ 44.4 µM)	6.3 µg/mL	6.3 µg/mL	17.5 µM	16 µg/mL (≈ 44.4 µM)	16 to 32 µg/mL	8 µg/mL (≈ 22.2 µM)	> 32 µg/mL	> 32 µg/mL	17 µg/mL (≈ 47.1 µM)	> 32 µg/mL	> 32 µg/mL	–
